Results published in US7189720B2 (H. Lundbeck A/S, priority 1999, dated 2007).
Counter-ions that a name gives are not always drawn. Like-named read-outs stand apart in the source and are kept apart here.

Assays:
[1] = biological target: T1, human Y5 receptor (Homo sapiens, UniProt Q15761); test: Radioligand binding to membranes, cloned human Y5 receptor; conditions: read-out: Ki, nM hNPY-5
T1 construct: expressed in transfected cells; host or cells: mouse fibroblast LM(tk-) cells, e.g. L-hY5-7 (ATCC CRL-11995)
T1 sequence (Q15761 1-445): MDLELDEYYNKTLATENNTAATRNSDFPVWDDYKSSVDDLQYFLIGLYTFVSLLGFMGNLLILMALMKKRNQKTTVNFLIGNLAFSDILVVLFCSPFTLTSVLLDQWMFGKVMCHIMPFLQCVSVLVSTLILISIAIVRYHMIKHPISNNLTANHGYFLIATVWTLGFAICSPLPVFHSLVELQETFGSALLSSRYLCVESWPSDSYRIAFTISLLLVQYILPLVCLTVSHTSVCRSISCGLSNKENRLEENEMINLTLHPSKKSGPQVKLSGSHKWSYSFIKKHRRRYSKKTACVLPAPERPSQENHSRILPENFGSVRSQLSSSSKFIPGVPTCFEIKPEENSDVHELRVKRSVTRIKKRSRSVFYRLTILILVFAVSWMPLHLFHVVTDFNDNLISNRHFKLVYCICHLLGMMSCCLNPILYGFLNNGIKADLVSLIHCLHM

[2] = biological target: T2, human Y1 receptor (Homo sapiens, UniProt P25929); test: Radioligand binding to membranes, cloned human Y1 receptor; conditions: hNPY-1 (one cell for Y1, Y2, Y4), read-out: Ki, nM hNPY-1,2,4
T2 construct: expressed in transfected cells; host or cells: human embryonic kidney 293 cells, e.g. 293-hY1-5 (ATCC CRL-12121)
T2 sequence (P25929 1-384): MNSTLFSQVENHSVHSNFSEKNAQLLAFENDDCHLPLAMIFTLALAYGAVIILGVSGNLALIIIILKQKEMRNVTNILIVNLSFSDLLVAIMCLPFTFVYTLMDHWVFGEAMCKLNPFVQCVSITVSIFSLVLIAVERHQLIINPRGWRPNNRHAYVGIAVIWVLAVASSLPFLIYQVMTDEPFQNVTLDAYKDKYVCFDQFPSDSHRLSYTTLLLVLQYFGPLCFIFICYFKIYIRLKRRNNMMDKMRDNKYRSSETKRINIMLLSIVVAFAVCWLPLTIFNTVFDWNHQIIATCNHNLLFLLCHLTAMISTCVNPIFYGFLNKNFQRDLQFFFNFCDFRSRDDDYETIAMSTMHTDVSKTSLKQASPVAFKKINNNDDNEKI
Protocol: (§1) Binding of the compounds of the present invention to human Y1, Y2, Y4, and Y5 receptors was evaluated using stably transfected 293 or LM(tk-) cells as described above.
(§2) Membranes were harvested from COS-7 cells 48 hours after transient transfection. Adherent cells were washed twice in ice-cold phosphate buffered saline (138 mM NaCl, 8.1 mM Na2HPO4, 2.5 mM KCl, 1.2 mM KH2PO4, 0.9 mM CaCl2, 0.5 mM MgCl2, pH 7.4) and lysed by sonication in ice-cold sonication buffer (20 mM Tris-HCl, 5 mM EDTA, pH 7.7). Large particles and debris were cleared by low speed centrifugation (200×g, 5 min, 4° C.). Membranes were collected from the supernatant fraction by centrifugation (32,000×g, 18 min, 4° C.), washed with ice-cold hypotonic buffer, and collected again by centrifugation (32,000×g, 18 min, 4° C.). The final membrane pellet was resuspended by sonication into a small volume of ice-cold binding buffer (˜1 ml for every 5 plates: 10 mM NaCl, 20 mM HEPES, 0.22 mM KH2PO4, 1.26 mM CaCl2, 0.81 mM MgSO4, pH 7.4). Protein concentration was measured by the Bradford method (Bradford, 1976) using Bio-Rad Reagent, with bovine serum albumin as a standard. Membranes were held on ice for up to one hour and used fresh, or flash-frozen and stored in liquid nitrogen.
(§3) Membranes were prepared similarly from 293, LM(tk-), and NIH-3T3 cells.
(§4) Membrane suspensions were diluted in binding buffer supplemented with 0.1% bovine serum albumin to yield an optimal membrane protein concentration so that ^125I-PYY (or alternative radioligand such as ^125I-NPY, ^125I-NYY3-36, or ^125I-[Leu^31Pro^34]PYY) bound by membranes in the assay was less than 10% of ^125I-PYY (or alternative radioligand) delivered to the sample (100,000 dpm/sample=0.08 nM for competition binding assays). ^125I-PYY (or alternative radioligand) and peptide competitors were also diluted to desired concentrations in supplemented binding buffer. Individual samples were then prepared in 96-well polypropylene microtiter plates by mixing ^125I-PYY (25 μL) (or alternative radioligand), competing peptides or supplemented binding buffer (25 μL), and finally, membrane suspensions (200 μL). Samples were incubated in a 30° C. water bath with constant shaking for 120 min. Incubations were terminated by filtration over Whatman GF/C filters (pre-coated with 1% polyethyleneimine and air-dried before use), followed by washing with 5 mL of ice-cold binding buffer. Filter-trapped membranes were impregnated with MeltiLex solid scintillant (Wallac, Turku, Finland) and counted for ^125I in a Wallac Beta-Plate Reader. Alternatively, incubations were carried out in GF/C filter plates (pre-coated with 1% polyethyleneimine and air-dried before use), followed by vacuum filtration and three washes of 300 μL of ice-cold binding buffer. 50 μL of UltimaGold (Packard) scintillant were added and counted for ^125I, in a Wallac MicroBeta Trilux. Non-specific binding was defined by 300 nM human NPY for all receptors except the Y4 subtypes; 100 nM human PP was used for the human Y4 and 100 nM rat PP for the rat Y4.

[3] = biological target: T3, human Y2 receptor (Homo sapiens, UniProt P49146); test: Radioligand binding to membranes, cloned human Y2 receptor
T3 sequence (P49146 1-381): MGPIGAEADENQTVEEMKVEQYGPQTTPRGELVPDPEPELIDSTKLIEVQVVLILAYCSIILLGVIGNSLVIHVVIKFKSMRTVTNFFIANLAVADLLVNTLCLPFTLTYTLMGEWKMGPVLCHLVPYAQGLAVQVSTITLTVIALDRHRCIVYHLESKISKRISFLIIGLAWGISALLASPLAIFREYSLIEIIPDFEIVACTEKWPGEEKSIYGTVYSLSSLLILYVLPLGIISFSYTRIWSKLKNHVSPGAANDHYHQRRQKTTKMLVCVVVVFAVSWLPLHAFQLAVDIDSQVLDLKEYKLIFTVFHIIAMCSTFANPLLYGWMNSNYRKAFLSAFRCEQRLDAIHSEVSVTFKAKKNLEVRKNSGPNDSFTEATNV
Protocol: as §1, §2, §3, §4

[4] = biological target: T4, human Y4 receptor (Homo sapiens, UniProt P50391); test: Radioligand binding to membranes, cloned human Y4 receptor; conditions: hNPY-4 (one cell for Y1, Y2, Y4), read-out: Ki, nM hNPY-1,2,4
T4 construct: expressed in transfected cells; host or cells: mouse fibroblast LM(tk-) cells, e.g. L-hY4-3 (ATCC CRL-11779)
T4 sequence (P50391 whole entry): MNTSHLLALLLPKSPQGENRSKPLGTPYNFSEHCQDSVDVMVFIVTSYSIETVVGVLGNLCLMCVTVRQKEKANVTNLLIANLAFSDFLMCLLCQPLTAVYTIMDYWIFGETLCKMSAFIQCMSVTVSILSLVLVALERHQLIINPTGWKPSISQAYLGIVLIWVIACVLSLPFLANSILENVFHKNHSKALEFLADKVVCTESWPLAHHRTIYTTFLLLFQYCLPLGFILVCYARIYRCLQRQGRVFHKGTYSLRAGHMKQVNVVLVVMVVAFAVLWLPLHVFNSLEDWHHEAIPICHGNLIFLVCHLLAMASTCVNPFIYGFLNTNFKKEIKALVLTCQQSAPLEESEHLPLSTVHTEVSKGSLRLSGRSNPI
Protocol: as §1, §2, §3, §4

| Compound | melting point | Ki ([1]; Table 5) | Ki ([2]; Table 5) | Ki [3] | Ki ([4]; Table 5) | Ki ([1]; Table 6) | Ki ([2]; Table 6) | Ki ([4]; Table 6) |
| --- | --- | --- | --- | --- | --- | --- | --- | --- |
| O=S(=O)(NCCCCCNc1nc(-c2ccccn2)cs1)c1cccs1 (as salt: chloride) [Example 60, 4-(2-Pyridyl)-2-(5-(2-thienyl)sulfonylaminopentyl)-amino-thiazole hydrogen chloride] | 75 to 77 °C |  |  |  |  |  |  |  |
| O=S(=O)(NCCCCCNc1nc(-c2ccncc2)cs1)c1ccccc1F [Example 73, 2-(5-(2-Fluoro)phenylsulfonylamino)pentylamino-4-(4-pyridyl)thiazole hydrogen chloride] |  | 204 nM | > 10000 nM | > 10 µM | > 10000 nM |  |  |  |
| COc1ccc(C)cc1S(=O)(=O)NCCCCCNc1nc(-c2cc(-c3ccccc3)on2)cs1 [Example 78] |  | 891 nM | > 10000 nM | > 10 µM | > 10000 nM |  |  |  |
| COc1ccc(C)cc1S(=O)(=O)NCCCCCNc1nc(-c2ccn(S(=O)(=O)c3ccccc3)c2)cs1 [Example 80, N1-[5-({4-[1-(Phenylsulfonyl)-1H-3-pyrrolyl]-1,3-thiazol-2-yl}amino)pentyl]-2-methoxy-5-methyl-1-benzenesulfonamide] |  | 40 nM | > 10000 nM | > 10 µM | > 10000 nM |  |  |  |
| O=S(=O)(NC[C@H]1CC[C@H](Nc2nc(-c3cc(-c4ccccc4)no3)cs2)CC1)c1cccc2cccnc12 [Example 81, trans-N8-[(4-{[4-(3-Phenyl-5-isoxazolyl)-1,3-thiazol-2-yl]amino}cyclohexyl)methyl]-8-quinolinesulfonamide] |  | 155 nM | > 10000 nM | > 10 µM | > 10000 nM |  |  |  |
| O=S(=O)(NCCCCCCNc1nc2c(s1)CCSc1ccccc1-2)c1cccs1 [Example 106] |  |  |  | > 10 µM |  | 2.9 nM | > 10000 nM | > 10000 nM |
| CCS(=O)(=O)NC[C@H]1CC[C@H](Nc2nc3c(s2)CCSc2ccccc2-3)CC1 [Example 107, N1-{[4-(4,5-Dihydrobenzo[2,3]thiepino[4,5-d][1,3]thiazol-2-ylamino)cyclohexyl]methyl}-1-ethanesulfonamide] |  |  |  | > 10 µM |  | 5.1 nM | > 10000 nM | > 10000 nM |
| COc1ccc(C)cc1S(=O)(=O)NCCCCCNc1nc2c(s1)CCSc1ccc(F)cc1-2 [Example 160, N1-{5-[(9-Fluoro-4,5-dihydrobenzo[2,3]thiepino[4,5-d][1,3]thiazol-2-yl)amino]pentyl}-2-methoxy-5-methyl-1-benzenesulfonamide] |  |  |  | > 10 µM |  | 2.8 nM | > 10000 nM | > 10000 nM |
| O=S(=O)(NCCCCCNc1nc2c(s1)CCSc1ccc(F)cc1-2)c1ccccc1F [Example 161, N1-{5-[(9-Fluoro-4,5-dihydrobenzo[2,3]thiepino[4,5-d][1,3]thiazol-2-yl)amino]pentyl}-2-fluoro-1-benzenesulfonamide] |  |  |  | > 10 µM |  | 4.9 nM | > 10000 nM | > 10000 nM |
| O=S(=O)(NCCCCCNc1nc2c(s1)CCSc1ccc(F)cc1-2)c1cccs1 [Example 162, N2-{5-[(9-Fluoro-4,5-dihydrobenzo[2,3]thiepino[4,5-d][1,3]thiazol-2-yl)amino]pentyl}-2-thiophenesulfonamide] |  |  |  | > 10 µM |  | 4.8 nM | > 10000 nM | > 10000 nM |

More lines, now with the values ahead:

| melting point | Ki ([1]; Table 5) | Ki ([2]; Table 5) | Ki [3] | Ki ([4]; Table 5) | Ki ([1]; Table 6) | Ki ([2]; Table 6) | Ki ([4]; Table 6) | Compound |
| --- | --- | --- | --- | --- | --- | --- | --- | --- |
| 60 to 63 °C |  |  |  |  |  |  |  | O=S(=O)(NCCCCCNc1nc(-c2ccccn2)cs1)c1ccccc1F (as salt: chloride) [Example 61, 2-(5-(2-Fluorophenyl)sulfonylamino)pentylamino-4-(2-pyridyl)-thiazole hydrogen chloride] |
|  | 745 nM | > 10000 nM | > 10 µM | > 10000 nM |  |  |  | Cc1noc(C)c1S(=O)(=O)NCCCCCNc1nc(-c2ccncc2)cs1 [Example 74, 2-(5-(3,5-Dimethylisoxazol-4-yl)sulfonylamino)pentylamino-4-(4-pyridyl)thiazole hydrogen chloride] |
|  | 5 nM | > 10000 nM | > 10 µM | > 10000 nM |  |  |  | COc1ccc(C)cc1S(=O)(=O)NCCCCCNc1nc(-c2ccncc2)cs1 [Example 75, 2-(5-(2-Methoxy-5-methyl)phenylsulfonylamino)pentylamino-4-(4-pyridyl)thiazole hydrogen chloride] |
|  | 11 nM | > 10000 nM | > 10 µM | > 10000 nM |  |  |  | COc1ccc(C)cc1S(=O)(=O)NCCCCCNc1nc(-c2cc3ccccc3s2)cs1 [Example 76, N1-{5-[(4-Benzo[b]thiophen-2-yl-1,3-thiazol-2-yl)amino]-pentyl}-2-methoxy-5-methyl-1-benzenesulfonamide] |
|  | 297 nM | > 10000 nM | > 10 µM | > 10000 nM |  |  |  | COc1ccc(C)cc1S(=O)(=O)NCCCCCNc1nc(-c2sc3ccc(Cl)cc3c2C)cs1 [Example 77, N1-(5-{[4-(5-Chloro-3-methylbenzo[b]thiophen-2-yl)-1,3-thiazol-2-yl]amino}pentyl)-2-methoxy-5-methyl-1-benzenesulfonamide] |
|  | 545 nM | > 10000 nM | > 10 µM | > 10000 nM |  |  |  | COc1ccc(C)cc1S(=O)(=O)NCCCCCNc1nc(-c2ccsc2)cs1 [Example 79, N1-(5-{[4-(3-Thienyl)-1,3-thiazol-2-yl]amino}pentyl)-2-methoxy-5-methyl-1-benzenesulfonamide] |
|  | 8.3 nM | > 10000 nM | > 10 µM | > 10000 nM |  |  |  | CN(C)S(=O)(=O)NCCCCCNc1nc(-c2ccsc2)cs1 [Example 82, N,N-Dimethyl-N′-(5-{[4-(3-Thienyl)-1,3-thiazol-2-yl]amino}pentyl)sulfamide] |
|  |  |  | > 10 µM |  | 3.7 nM | > 10000 nM | > 10000 nM | CCS(=O)(=O)NCCCCCNc1nc2c(s1)CCSc1ccccc1-2 [Example 109, N1-[5-(4,5-Dihydrobenzo[2,3]thiepino[4,5-d][1,3]thiazol-2-ylamino)pentyl]-1-ethanesulfonamide] |
|  |  |  | > 10 µM |  | 2.6 nM | > 10000 nM | > 10000 nM | O=S(=O)(NCCCCCNc1nc2c(s1)CCSc1ccccc1-2)c1cccs1 [Example 110, N2-[5-(4,5-Dihydrobenzo[2,3]thiepino[4,5-d][1,3]thiazol-2-ylamino)pentyl]-2-thiophenesulfonamide] |
|  |  |  | > 10 µM |  | 2.4 nM | > 10000 nM | > 10000 nM | O=S(=O)(NC[C@H]1CC[C@H](Nc2nc3c(s2)CCSc2ccccc2-3)CC1)c1cccc2nsnc12 [Example 118, N4-{[4-(4,5-Dihydrobenzo[2,3]thiepino[4,5-d][1,3]thiazol-2-ylamino)cyclohexyl]methyl}-2,1,3-benzothiadiazole-4-sulfonamide] |
|  |  |  | > 10 µM |  | 8.2 nM | > 10000 nM | > 10000 nM | Cc1cccc(F)c1S(=O)(=O)NC[C@H]1CC[C@H](Nc2nc3c(s2)CCSc2ccccc2-3)CC1 [Example 158, N1-{[4-(4,5-Dihydrobenzo[2,3]thiepino[4,5-d][1,3]thiazol-2-ylamino)cyclohexyl]methyl}-2-fluoro-6-methyl-1-benzenesulfonamide] |
|  |  |  | > 10 µM |  | 6.1 nM | > 10000 nM | > 10000 nM | CS(=O)(=O)NCCCCCNc1nc2c(s1)CCSc1ccc(F)cc1-2 [Example 159, N-{5-[(9-Fluoro-4,5-dihydrobenzo[2,3]thiepino[4,5-d][1,3]thiazol-2-yl)amino]pentyl}methanesulfonamide] |
